Columns and labels:
Experiment in all cases: KINOMEscan (ScanMAX) kinase profiling
Assay type in all cases: binding
[1] = biological target: T1, panel of 468 kinases (Homo sapiens, UniProt P06241); settings: FYN; 1 μM; read-out: % control
T1 construct: purchased KINOMEscan (ScanMAX) service

[2] = biological target: T2, panel of 468 kinases (Homo sapiens, UniProt P07332); settings: FES; 1 μM; read-out: % control
T2 construct: purchased KINOMEscan (ScanMAX) service

[3] = biological target: T3, panel of 468 kinases (Homo sapiens, UniProt P57058); settings: HUNK; 1 μM; read-out: % control
T3 construct: purchased KINOMEscan (ScanMAX) service
T3 sequence (P57058 1-714): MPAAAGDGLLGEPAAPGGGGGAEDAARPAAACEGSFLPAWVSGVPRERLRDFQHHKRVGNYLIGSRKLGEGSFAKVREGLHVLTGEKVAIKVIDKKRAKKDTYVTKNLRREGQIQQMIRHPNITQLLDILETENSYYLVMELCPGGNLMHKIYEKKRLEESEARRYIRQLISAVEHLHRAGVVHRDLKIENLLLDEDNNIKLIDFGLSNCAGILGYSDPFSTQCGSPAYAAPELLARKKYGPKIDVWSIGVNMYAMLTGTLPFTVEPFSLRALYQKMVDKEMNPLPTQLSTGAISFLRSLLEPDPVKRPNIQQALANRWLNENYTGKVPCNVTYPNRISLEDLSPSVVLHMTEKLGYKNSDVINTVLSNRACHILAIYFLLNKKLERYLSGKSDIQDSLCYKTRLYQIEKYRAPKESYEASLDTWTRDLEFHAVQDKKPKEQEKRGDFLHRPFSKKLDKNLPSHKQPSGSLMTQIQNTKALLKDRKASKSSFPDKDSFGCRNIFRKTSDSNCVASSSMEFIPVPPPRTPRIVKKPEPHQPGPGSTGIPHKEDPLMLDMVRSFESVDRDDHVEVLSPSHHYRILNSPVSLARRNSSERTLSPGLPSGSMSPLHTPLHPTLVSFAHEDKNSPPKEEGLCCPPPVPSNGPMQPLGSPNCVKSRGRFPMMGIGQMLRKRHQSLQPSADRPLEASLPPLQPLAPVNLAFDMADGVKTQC

[4] = biological target: T4, panel of 468 kinases (Homo sapiens, UniProt Q16566); settings: CAMK4; 1 μM; read-out: % control
T4 construct: purchased KINOMEscan (ScanMAX) service
T4 sequence (Q16566 1-473): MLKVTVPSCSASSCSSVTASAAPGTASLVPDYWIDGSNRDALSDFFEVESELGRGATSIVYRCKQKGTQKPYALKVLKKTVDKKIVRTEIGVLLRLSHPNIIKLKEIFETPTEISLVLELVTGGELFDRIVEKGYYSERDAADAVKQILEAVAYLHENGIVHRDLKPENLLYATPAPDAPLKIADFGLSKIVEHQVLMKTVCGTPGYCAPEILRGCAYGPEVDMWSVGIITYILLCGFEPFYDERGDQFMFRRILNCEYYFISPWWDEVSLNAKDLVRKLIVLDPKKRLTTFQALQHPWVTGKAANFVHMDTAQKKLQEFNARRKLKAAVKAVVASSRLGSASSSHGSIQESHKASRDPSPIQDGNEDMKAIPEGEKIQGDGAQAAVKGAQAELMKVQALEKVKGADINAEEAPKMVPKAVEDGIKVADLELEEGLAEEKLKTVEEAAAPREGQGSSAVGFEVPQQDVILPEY

[5] = biological target: T5, panel of 468 kinases (Homo sapiens, UniProt Q9HC98); settings: NEK6; 1 μM; read-out: % control
T5 construct: purchased KINOMEscan (ScanMAX) service

[6] = biological target: T6, panel of 468 kinases (Homo sapiens, UniProt Q9NRM7); settings: LATS2; 1 μM; read-out: % control
T6 construct: purchased KINOMEscan (ScanMAX) service
T6 sequence (Q9NRM7 1-1088): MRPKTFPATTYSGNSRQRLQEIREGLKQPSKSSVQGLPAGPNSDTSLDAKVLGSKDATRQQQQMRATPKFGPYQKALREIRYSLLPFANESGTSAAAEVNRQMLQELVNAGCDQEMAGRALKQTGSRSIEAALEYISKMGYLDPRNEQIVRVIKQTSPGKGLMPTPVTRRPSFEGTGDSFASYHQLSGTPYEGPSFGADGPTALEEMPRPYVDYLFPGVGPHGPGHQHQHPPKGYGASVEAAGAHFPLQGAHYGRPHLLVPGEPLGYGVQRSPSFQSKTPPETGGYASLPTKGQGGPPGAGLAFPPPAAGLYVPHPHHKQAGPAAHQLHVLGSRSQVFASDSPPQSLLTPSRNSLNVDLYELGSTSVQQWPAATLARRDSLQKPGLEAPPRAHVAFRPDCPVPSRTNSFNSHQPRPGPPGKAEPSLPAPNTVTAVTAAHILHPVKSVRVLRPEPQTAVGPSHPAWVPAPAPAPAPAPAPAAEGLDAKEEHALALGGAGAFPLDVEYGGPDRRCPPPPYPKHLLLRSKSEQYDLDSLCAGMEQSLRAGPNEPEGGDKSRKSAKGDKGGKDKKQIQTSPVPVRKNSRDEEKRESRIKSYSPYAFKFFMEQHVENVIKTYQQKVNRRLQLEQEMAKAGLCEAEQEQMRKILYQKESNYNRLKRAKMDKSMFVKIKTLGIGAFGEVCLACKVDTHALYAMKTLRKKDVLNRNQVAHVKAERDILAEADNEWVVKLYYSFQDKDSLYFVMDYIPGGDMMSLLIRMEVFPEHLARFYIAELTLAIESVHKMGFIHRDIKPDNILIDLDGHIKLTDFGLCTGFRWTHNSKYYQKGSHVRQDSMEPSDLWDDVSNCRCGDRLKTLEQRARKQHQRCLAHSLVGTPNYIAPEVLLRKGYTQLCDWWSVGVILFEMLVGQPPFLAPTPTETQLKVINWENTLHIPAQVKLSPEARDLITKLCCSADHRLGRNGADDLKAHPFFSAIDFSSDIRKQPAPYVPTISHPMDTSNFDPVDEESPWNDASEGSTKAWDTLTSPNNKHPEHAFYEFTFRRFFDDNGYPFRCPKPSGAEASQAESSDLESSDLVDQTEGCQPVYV

[7] = biological target: T7, panel of 468 kinases (Homo sapiens, UniProt Q9NY57); settings: YANK2; 1 μM; read-out: % control
T7 construct: purchased KINOMEscan (ScanMAX) service
T7 sequence (Q9NY57 whole entry): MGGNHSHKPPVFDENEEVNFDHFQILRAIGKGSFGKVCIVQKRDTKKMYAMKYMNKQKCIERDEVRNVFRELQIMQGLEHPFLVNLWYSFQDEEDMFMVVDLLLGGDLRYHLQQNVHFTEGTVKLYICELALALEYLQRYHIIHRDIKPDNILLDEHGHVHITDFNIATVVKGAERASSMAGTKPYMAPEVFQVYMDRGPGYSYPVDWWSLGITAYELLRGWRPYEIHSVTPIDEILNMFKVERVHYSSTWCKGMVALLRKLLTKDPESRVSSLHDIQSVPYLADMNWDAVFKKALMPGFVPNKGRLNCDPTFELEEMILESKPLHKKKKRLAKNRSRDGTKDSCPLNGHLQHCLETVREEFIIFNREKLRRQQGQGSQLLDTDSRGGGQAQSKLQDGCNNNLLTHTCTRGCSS

T2 sequence (P07332 whole entry): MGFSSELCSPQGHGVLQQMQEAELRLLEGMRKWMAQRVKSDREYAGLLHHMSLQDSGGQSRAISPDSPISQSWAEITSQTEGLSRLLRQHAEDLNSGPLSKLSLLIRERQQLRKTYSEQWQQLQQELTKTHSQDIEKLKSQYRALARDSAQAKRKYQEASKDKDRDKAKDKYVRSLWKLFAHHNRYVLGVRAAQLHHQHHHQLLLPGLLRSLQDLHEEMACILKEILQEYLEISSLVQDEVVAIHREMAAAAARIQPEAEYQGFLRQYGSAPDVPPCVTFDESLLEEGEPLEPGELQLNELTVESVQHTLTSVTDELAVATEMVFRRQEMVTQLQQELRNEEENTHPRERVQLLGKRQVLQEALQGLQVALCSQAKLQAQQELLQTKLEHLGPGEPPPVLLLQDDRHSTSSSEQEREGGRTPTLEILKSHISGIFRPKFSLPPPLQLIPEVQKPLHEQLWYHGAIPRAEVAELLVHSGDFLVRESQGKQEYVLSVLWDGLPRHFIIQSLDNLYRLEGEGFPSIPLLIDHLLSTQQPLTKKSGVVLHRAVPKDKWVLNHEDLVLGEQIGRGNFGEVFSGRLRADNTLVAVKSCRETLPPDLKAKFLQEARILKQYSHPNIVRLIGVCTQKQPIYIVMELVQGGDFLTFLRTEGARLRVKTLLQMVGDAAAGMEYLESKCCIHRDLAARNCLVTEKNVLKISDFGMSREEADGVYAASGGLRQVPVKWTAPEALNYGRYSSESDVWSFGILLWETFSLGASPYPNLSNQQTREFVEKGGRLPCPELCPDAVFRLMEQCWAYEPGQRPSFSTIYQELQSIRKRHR
T5 sequence (Q9HC98 whole entry): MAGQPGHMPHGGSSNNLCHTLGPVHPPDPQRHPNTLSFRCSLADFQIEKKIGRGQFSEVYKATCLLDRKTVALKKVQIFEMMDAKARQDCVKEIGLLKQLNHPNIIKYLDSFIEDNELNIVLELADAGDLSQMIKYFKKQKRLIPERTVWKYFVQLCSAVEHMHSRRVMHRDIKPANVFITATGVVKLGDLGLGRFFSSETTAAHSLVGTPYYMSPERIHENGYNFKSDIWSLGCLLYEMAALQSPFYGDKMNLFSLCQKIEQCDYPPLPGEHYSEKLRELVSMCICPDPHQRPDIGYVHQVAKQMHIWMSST
T1 sequence (P06241 whole entry): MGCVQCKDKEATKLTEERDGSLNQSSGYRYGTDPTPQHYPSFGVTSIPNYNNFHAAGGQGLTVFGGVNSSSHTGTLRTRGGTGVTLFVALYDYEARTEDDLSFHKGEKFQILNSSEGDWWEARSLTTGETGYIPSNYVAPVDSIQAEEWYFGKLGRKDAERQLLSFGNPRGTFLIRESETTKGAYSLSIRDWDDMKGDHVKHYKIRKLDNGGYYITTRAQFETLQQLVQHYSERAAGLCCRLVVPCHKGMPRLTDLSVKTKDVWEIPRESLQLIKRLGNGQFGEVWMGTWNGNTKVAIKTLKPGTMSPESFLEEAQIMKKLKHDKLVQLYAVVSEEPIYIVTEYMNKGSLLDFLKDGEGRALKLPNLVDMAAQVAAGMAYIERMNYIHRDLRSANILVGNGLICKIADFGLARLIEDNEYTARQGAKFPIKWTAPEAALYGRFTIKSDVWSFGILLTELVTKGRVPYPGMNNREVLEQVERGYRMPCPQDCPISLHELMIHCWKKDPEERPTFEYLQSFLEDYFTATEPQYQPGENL

SMILES	remaining binding at 1 µM [1] [%]	remaining binding at 1 µM [2] [%]	remaining binding at 1 µM [3] [%]	remaining binding at 1 µM [4] [%]	remaining binding at 1 µM [5] [%]	remaining binding at 1 µM [6] [%]	remaining binding at 1 µM [7] [%]
CNc1nc(Nc2ccc(C(=O)N3CCC(N4CCOCC4)CC3)c3c2OCO3)nc2[nH]cc(Cl)c12 [Compound 75, (7-((5-chloro-4-(methylamino)-7H-pyrrolo[2,3-d]pyrimidin-2-yl)amino)benzo[d][1,3]dioxol-4-yl)(4-morpholinopiperidin-1-yl)methanone]	100	81	18	100	100	90	100
CNc1nc(Nc2ccc(S(=O)(=O)N3CCC(N4CCOCC4)CC3)cc2OC)nc2[nH]cc(Cl)c12 [Compound 12, 5-chloro-N2-(2-methoxy-4-((4-morpholinopiperidin-1-yl)sulfonyl)phenyl)-N4-methyl-7H-pyrrolo[2,3-d]pyrimidine-2,4-diamine]	100	100	12	100	100	100	96
CNc1nc(Nc2ccc(P3(=O)CCN(C4CCOCC4)CC3)cc2OC)nc2[nH]cc(Cl)c12 [Compound 77, 4-(4-((5-chloro-4-(methylamino)-7H-pyrrolo[2,3-d]pyrimidin-2-yl)amino)-3-methoxyphenyl)-1-(tetrahydro-2H-pyran-4-yl)-1,4-azaphosphinane 4-oxide]	95	80	14	100	100	93	100

Reference: US12479847B2 (DANA-FARBER CANCER INSTITUTE, INC., priority 2019, dated 2025)
